How the values were obtained:
Assay in all cases: LIVE/DEAD cytotoxicity assay, inhibition of cell proliferation
Assay type in all cases: cell-based, human
Conditions in all cases: 48 hours of incubation, calcein-AM fluorescence, cell growth reduced by 50% compared to control
HeLa cells = system: HeLa cells; design: log GI50 values (M), HeLa cells: unit not given here
Experimental: (§1) The compounds of the general formula (I) according to the invention were tested for a possible cytotoxic or proliferation-inhibiting activity on the human tumour cell lines HeLa, SW620 and A375 (all from ATTC, American Type Culture Collection). To this end, the cells were plated in microtitre plates from Greiner (Manufacturer No. 781092) at a cell density of 1000 cells/microtitre plate well and cultivated in cell culture medium at 37° C. under a 5% carbon dioxide atmosphere. Cell culture media and additives were purchased from Invitrogen and the foetal calf serum from Biochrom. The cell culture media for Hela and A375 cells were used as stated by ATCC (HeLa: MEM, Order No. 10370-047, with 1% sodium bicarbonate, 1% non-essential amino acids, 1% sodium pyruvate, 10% foetal calf serum, 0.1% gentamycin; A375: DMEM, Order No. 41965-039, 2% sodium bicarbonate, 1% L-Glutamax, 10% foetal calf serum, 0.1% gentamycin). The culture medium for the SW620 cells consisted of DMEM, Order No. 41965-039, 1% non-essential amino acids, 10% foetal calf serum, 0.1% gentamycin.
24 hours after the cells had been plated in the microtitre plates, various concentrations of at most 100 μM down to a minimum concentration of 5 nM of the test compounds were added to the cells. […]
After a further 48 hours of incubation, the cells were washed with medium and analysed with the aid of a two-colour fluorescence cytotoxicity/viability test (LIVE/DEAD viability/cytotoxicity ASSAY kit from Molecular Probes, Order No. L-3224), according to the instructions of the manufacturer. […] The number of live cells was analysed by measuring the green fluorescence of the live dye calcein-AM as a component of the LIVE/DEAD reagent using a fluorescence plate reader (Flexstation, from Molecular Devices) at an excitation wavelength of 485 nm and an emission wavelength of 525 nm (cf. Oral, H. B. Endothelium 6, (1998), 143-151).
Cells only with cell culture medium, without added test compounds, were treated in parallel and analysed as growth controls. […]

SW620 cells = system: SW620 cells
Experimental: as §1
(§2) 24 hours after the cells had been plated in the microtitre plates, various concentrations of at most 100 μM down to a minimum concentration of 5 nM of the test compounds were added to the cells. Stock solutions of the test compounds (10 mM) were prepared in DMSO and stored at −20° C.; for the cytotoxicity tests, the test compounds were diluted in the appropriate cell culture medium.
(§3) After a further 48 hours of incubation, the cells were washed with medium and analysed with the aid of a two-colour fluorescence cytotoxicity/viability test (LIVE/DEAD viability/cytotoxicity ASSAY kit from Molecular Probes, Order No. L-3224), according to the instructions of the manufacturer. To this end, the medium was aspirated and in each case 30 μl of LIVE/DEAD reagent per microtitre plate well were added to the cells, which were then incubated for 30 minutes. The cells were then washed with PBS (phosphate-buffered saline). The number of live cells was analysed by measuring the green fluorescence of the live dye calcein-AM as a component of the LIVE/DEAD reagent using a fluorescence plate reader (Flexstation, from Molecular Devices) at an excitation wavelength of 485 nm and an emission wavelength of 525 nm (cf. Oral, H. B. Endothelium 6, (1998), 143-151).
(§4) Cells only with cell culture medium, without added test compounds, were treated in parallel and analysed as growth controls. The reference compounds used for anti-tumour agents having a cytotoxic or proliferation-inhibiting action were colchicine (from Merck/Calbiochem, Order No. 234115) and Taxol (baccatin III N-benzyl-b-phenylisoserine ester, from Merck/Calbiochem, Order No. 580555) (cf. Schiff, P. B. and Horwitz, S. B., Proceedings of the National Academy of Sciences of the U.S.A. 77, 1561-1565, 1980; Holmes, F. A. et al., Journal of the National Cancer Institute 83, 1797-1805, 1991).
(§5) The cytotoxic effects of the test compounds were expressed as logarithmic GI50 values (growth-inhibiting logarithmic concentration value at which a cell growth reduced by 50% compared to the control without test compounds was measured (cf. Xia et al., Journal of Medicinal Chemistry 44, 3932-3936, 2001; Smith, J. A. et al., Gynecologic Oncology 98, 141-145, 2005)).

A375 cells = system: A375 cells
Experimental: as §1, §2, §3, §4, §5

With `CO[C@@H]1[C@@H](OC)[C@H](O[C@@H]2CC(=O)[C@@H]3CCN(Cc4cc5c(cc43)OCO5)C(=O)[C@H]2O)O[C@H](CO)[C@H]1OC` [Cripowellin II, cripowellin II] the “log GI50 values (M), HeLa cells” value (HeLa cells) was 8.7, the “log GI50 values (M), SW620 cells” value (SW620 cells) was 6.9 -log M and the “log GI50 values (M), A375 cells” value (A375 cells) was 8.0 M.

— patent US20090131406A1 (BAYER CROPSCIENCE AG, priority 2005, published 2009)
